Values quoted from earlier work as cited in patent US20240299384A1, “METHODS FOR TREATING PULMONARY HYPERTENSION IN PATIENTS WITH LEFT VENTRICULAR ASSIST DEVICE IMPLANTATION” (ACTELION PHARMACEUTICALS LTD, priority 2021, published 2024).

Columns and labels:
[1] = cited from earlier work
ET receptors = settings: cited from earlier work

**Q.** With NS(=O)(=O)Nc1ncnc(OCCOc2ncc(Br)cn2)c1-c1ccc(Br)cc1 [ACT-132577] as the compound, how does the “time to peak plasma concentration” value ([1]; after the first dose of macitentan) read?
**A.** The value was “about 30 hours”.

**Q.** What about the half-life ([1]; humans) of the same compound?
**A.** Its half-life is “approximately 48 hours”.

**Q.** What about the “plasma concentrations relative to macitentan” value ([1]; humans) of the same compound?
**A.** Its value is “higher plasma concentrations”.

**Q.** What about the “affinity for the ET receptors relative to parent compound” value (ET receptors) of the same compound?
**A.** Its value is “lower affinity”.
